Laboratory results: ChEMBL document CHEMBL3046118, “Coumarinyl pyrazole derivatives of INH: promising antimycobacterial agents” (Med Chem Res, 2013)
In brackets after ≈: the same amount, converted by molar mass.

Tested on: Mycobacterium tuberculosis
Test: Antimycobacterial activity against Mycobacterium tuberculosis H37Rv assessed as growth inhibition after 6 days by resazurin MIC assay
Format: functional, organism-based
Conditions: for IC50 / IC90 / MIC: Mycobacterium tuberculosis, H37Rv, 144 h

| SMILES | growth inhibition (GI) [%] | IC50 [µg/mL] | IC90 [µg/mL] | MIC [µg/mL] |
| --- | --- | --- | --- | --- |
| O=C(c1ccncc1)n1nc(-c2ccc(Cl)cc2Cl)cc1-c1cc2ccccc2oc1=O | 69.09 | 0.74 (≈ 1.6 µM) | 1.46 (≈ 3.16 µM) | 1.25 (≈ 2.7 µM) |
| CO[C@H]1/C=C/O[C@@]2(C)Oc3c(C)c(O)c4c(O)c(c(/C=N/N5CCN(C)CC5)c(O)c4c3C2=O)NC(=O)/C(C)=C\C=C\[C@H](C)[C@H](O)[C@@H](C)[C@@H](O)[C@@H](C)[C@H](OC(C)=O)[C@@H]1C [RIFAMPIN] | – | – | – | 0.003 (≈ 0.00365 µM) |
| O=C(c1ccncc1)n1nc(-c2ccccc2)cc1-c1cc2ccccc2oc1=O | 73.53 | 1.92 (≈ 4.88 µM) | 2.26 (≈ 5.74 µM) | 2.5 (≈ 6.35 µM) |
| COc1cccc(-c2cc(-c3cc4ccccc4oc3=O)n(C(=O)c3ccncc3)n2)c1 | 65.14 | 1.17 (≈ 2.76 µM) | 1.29 (≈ 3.05 µM) | 1.25 (≈ 2.95 µM) |
| O=C(c1ccncc1)n1nc(-c2ccccc2[N+](=O)[O-])cc1-c1cc2ccccc2oc1=O | 67.83 | 1.9 (≈ 4.33 µM) | 2.74 (≈ 6.25 µM) | 2.5 (≈ 5.7 µM) |
| O=C(c1ccncc1)n1nc(-c2ccc(O)cc2)cc1-c1cc2ccccc2oc1=O | 69.91 | 1.51 (≈ 3.69 µM) | 2.85 (≈ 6.96 µM) | 2.5 (≈ 6.11 µM) |
| O=C(c1ccncc1)n1nc(-c2ccc(Cl)cc2)cc1-c1cc2ccccc2oc1=O | 75.39 | 0.75 (≈ 1.75 µM) | 1.22 (≈ 2.85 µM) | 1.25 (≈ 2.92 µM) |
| Cc1ccc(-c2cc(-c3cc4ccccc4oc3=O)n(C(=O)c3ccncc3)n2)cc1 | 62.63 | 2.46 (≈ 6.04 µM) | 2.69 (≈ 6.6 µM) | 5 (≈ 12.3 µM) |
| O=C(c1ccncc1)n1nc(-c2ccc(F)cc2)cc1-c1cc2ccccc2oc1=O | 80.09 | 0.41 (≈ 0.997 µM) | 0.73 (≈ 1.77 µM) | 0.625 (≈ 1.52 µM) |
| O=C(c1ccncc1)n1nc(-c2cccc([N+](=O)[O-])c2)cc1-c1cc2ccccc2oc1=O | 65.39 | 0.89 (≈ 2.03 µM) | 1.67 (≈ 3.81 µM) | 1.25 (≈ 2.85 µM) |
| COc1ccc(-c2cc(-c3cc4ccccc4oc3=O)n(C(=O)c3ccncc3)n2)cc1 | 66.67 | 1.21 (≈ 2.86 µM) | 1.35 (≈ 3.19 µM) | 2.5 (≈ 5.9 µM) |
| CN(C)c1ccc(-c2cc(-c3cc4ccccc4oc3=O)n(C(=O)c3ccncc3)n2)cc1 | 73.82 | 1.21 (≈ 2.77 µM) | 2.3 (≈ 5.27 µM) | 2.5 (≈ 5.73 µM) |
| NNC(=O)c1ccncc1 [ISONIAZID] | – | – | – | 0.06 (≈ 0.438 µM) |
